One data set has as its target T1, BTK (Homo sapiens, UniProt Q06187).
T1 construct: endogenous in cells; host or cells: Ramos cells (2G6.4C10, ATCC No. CRL-1923)
In words: Intracellular BTK auto-phosphorylation activity inhibition test in Ramos cells. It is filed as cell-based. The following applies: test compound 0.3 μM, anti-IgM stimulation, pY223, read-out: BTK Phosphorylation inhibiting activity. On the procedure:
Intracellular BTK Auto-Phosphorylation Activity Inhibition Test
(Culture of Cells to be Used)
Ramos cells (2G6.4C10, ATCC No. CRL-1923) were cultured in a T75 flask containing RPMI-1640 medium (GIBCO, #A10491-01) supplemented with 10% FBS (AusGene) and 5% penicillin-streptomycin (Nacalai Tesque, Inc.) (hereinafter referred to as growth medium) in a 5% CO2 incubator.
(Addition of the Compound to be Tested)
The cultured Ramos cells were diluted to a cell density of 7.5×10^6 cells/mL with a serum-free RPMI-1640 (hereinafter referred to as medium) and kept at 37° C. for 45 minutes. The cell suspension was dispensed in 1 mL aliquots into 2.0 mL tubes. […]
To the pellets obtained by recovering the cells via centrifugation, 100 μL of a lysis buffer [RIPA Buffer(×1) (Cell Signaling Technology, Inc.) supplemented with 1% Phosphatase inhibitor Cacktail 3 (Sigma Corporation, No. P0044), 1% Phosphatase inhibitor Cacktail (Nacalai Tesque, Inc., No. 07575) and 1 mM phenylmethylsulfonyl fluoride (PMSF)] was added and stirred gently and then allowed to stand for 10 minutes. The supernatant was recovered by centrifugation (15,000 rpm, 15 minutes) and the protein level was quantified. […]

Data set [1] relates to collagen-induced arthritis. The data set is described as follows: Mouse collagen-induced arthritis model. It is filed as in vivo. The following applies: DBA/1J mice, 30 and 60 mg/kg orally twice a day. Here is the method: Effect in Mouse Collagen-Induced Arthritis Model
Incomplete Freund's Adjuvant (Chondrex, Inc., #7002) supplemented with M. Tuberculosis H37 Ra, Desiccated (Beckton Dickinson and Company, #231141) at 2.5 mg/mL and Bovine Type II Collagen, 2 mg/mL Solution (Chondrex, Inc., #20022) were mixed in a 1:1 ratio to form an emulsion.
Three groups of DBA/1J mice (10 animals/group) (6-week old, male) received 0.1 mL per animal of the emulsion which was given in small portions on Day 0 and Day 21 by intradermal injection at the base of the tail, thereby accomplishing the immunization. The solvent or the test compound solution was given twice a day orally every day from Day 18 to Day 36 (test compound doses in the respective groups: 0 mg/kg, 30 mg/kg, 60 mg/kg). The treatment solution was prepared with the similar solvent in the similar manner as Test Example 4.
After the boost on Day 21, the state of the arthritis onset in each extremity was scored visually once in 2 or 3 days according to the criteria shown in Table 7. The scores of all four extremities were summed up on each mouse basis, and the mean value of 10 animals in each group was represented as an arthritis score (normal “0” up to maximum “16”).

Data set [2] relates to passive cutaneous anaphylaxis reaction (PCA reaction). The data set is described as follows: Passive cutaneous anaphylaxis reaction in mouse. The class given is in vivo. The following applies: ICR mouse, oral, 3.0 mg/mL at 10 mL/kg, vs solvent group (FIG. 2). The source says:
Test of Passive Cutaneous Anaphylaxis Reaction in Mouse
Since BTK plays an important role in FcεRI signal transmission in a mast cell, it was investigated whether a mast cell-involving immediate allergic reaction, namely, passive cutaneous anaphylaxis reaction (PCA reaction), which is an immediate allergic reaction involving mast cell, was inhibited by the administration of the compound.
(Preparation of Test Compound Solution)
DMSO, polyethylene glycol 400 (PEG#400, Nacalai Tesque, Inc. #28215-95), and 30% (w/v) hydroxypropyl-β-cyclodextrin aqueous solution (HP-β-CD, Sigma Corporation, #332607-500) were successively added to the test compound in this order, and mixed thoroughly to prepare a test compound solution (solvent composition: 5% solution of test compound in DMSO, 30% PEG#400, 65% HP-β-CD [30% (w/v) aqueous solution]). In the solvent control group, a DMSO solution was used instead of the solution of the test compound in DMSO.
An anti DNP-IgE monoclonal antibody (50 μg/mL, Santa Cruz Biotechnology, Inc., #sc-69695) was intradermally administered to both auricles in an ICR mouse under systemic anesthesia (10 μL/site). […] The absorbance of the resultant filtrate at 620 nm was measured, and used as an index of the dye leakage level. […]

Data set [3] has as its system BCR signal in the Ramos cells. In words: Inhibition test on the change of Ramos intracellular calcium ion (anti-IgM BCR stimulation). The class given is cell-based. The following applies: 0.003-1 μM, anti-IgM 2.0 μg/mL (FIG. 1). Here is the method: Inhibition Test on the Change of Ramos Intracellular Calcium Ion
The intracellular BTK inhibition by the compounds of the invention was verified by measuring the effects of the compounds of the invention on “anti-IgM antibody BCR stimulation-induced intracellular calcium influx”.
(Addition of Cell Suspension and Calcium Indicator)
One day before measurement, the Ramos cells were cultured after suspended again at a cell density of 1.0×10^6 cells/mL in a fresh growth medium (growth medium as used in Test Example 2), and the cells were recovered next day by centrifugation and washed with RPMI-1640 medium supplemented with 5% penicillin-streptomycin (Nacalai Tesque, Inc.) (Medium 1). These cells were suspended again at a cell density of 2.0×10^6 cells/mL in RPMI-1640 medium supplemented with 1% Ultra Low IgG FBS (GIBCO, #16250) and 5% penicillin-streptomycin (Nacalai Tesque, Inc.) (Medium 2), and thereafter each 100 μL of the cell suspension was added to each well of a poly lysine-coated microplate (BD BioCoat™, #356692), centrifuged (700 rpm, 3 minutes) and then incubated for 1 hour in a 5% CO2 incubator at 37° C. […]
Concentration of the Ramos intracellular calcium ion was measured as a fluorescent intensity of the calcium indicator Fluo-8NW using a microplate reader (SynergyH1) (Ex/Em=490/525 nm). […]
(In general: Calcium assays in cells follow changes in intracellular calcium, usually with a dye or a luminescent sensor.)

Data set [4] concerns collagen-induced arthritis. The data set is described as follows: Rat collagen-induced arthritis model. It is filed as in vivo. The following applies: Lewis rat, 30 and 60 mg/kg orally twice a day. Here is the method: Effect in Rat Collagen-Induced Arthritis Model
Incomplete Freund's Adjuvant (Sigma-Aldrich, #F5506) and Bovine Type II Collagen, 4 mg/mL Solution (Sichuan University, Lot.08H0497) were mixed in a 1:1 ratio to form an emulsion. Three groups of Lewis rat (10 animals/group) (5-6 week old, female) received 0.5 mL per animal of the emulsion which was given in small portions on Day 0 and Day 7 by intradermal injection at 3 sites, one site at the base of the tail (0.1 mL), and the rest of two sites (0.2 mL/site) were on the back of the rat near to the base of the tail, thereby accomplishing the immunization. The solvent or the test compound solution was given twice a day orally every day from Day 0 to Day 20 (test compound doses in the respective groups: 0 mg/kg, 30 mg/kg, 60 mg/kg). The treatment solution was prepared with the similar solvent in the similar manner as Test Example 4.
After the boost on Day 7, the state of the arthritis onset in each extremity was scored visually twice in a week according to the criteria shown in Table 8. The scores of all four extremities were summed up on each rat basis, and the mean value of 10 animals in each group was represented as an arthritis score (normal “0” up to maximum “16”).

SMILES strings stand for the structures. “Also recorded” adds a separate entry of the source.

The values that follow come from patent publication US9656995B2, “Triazine derivative” (Carna Biosciences, Inc., priority 2013, dated 2017).

T1 sequence (Q06187 whole entry): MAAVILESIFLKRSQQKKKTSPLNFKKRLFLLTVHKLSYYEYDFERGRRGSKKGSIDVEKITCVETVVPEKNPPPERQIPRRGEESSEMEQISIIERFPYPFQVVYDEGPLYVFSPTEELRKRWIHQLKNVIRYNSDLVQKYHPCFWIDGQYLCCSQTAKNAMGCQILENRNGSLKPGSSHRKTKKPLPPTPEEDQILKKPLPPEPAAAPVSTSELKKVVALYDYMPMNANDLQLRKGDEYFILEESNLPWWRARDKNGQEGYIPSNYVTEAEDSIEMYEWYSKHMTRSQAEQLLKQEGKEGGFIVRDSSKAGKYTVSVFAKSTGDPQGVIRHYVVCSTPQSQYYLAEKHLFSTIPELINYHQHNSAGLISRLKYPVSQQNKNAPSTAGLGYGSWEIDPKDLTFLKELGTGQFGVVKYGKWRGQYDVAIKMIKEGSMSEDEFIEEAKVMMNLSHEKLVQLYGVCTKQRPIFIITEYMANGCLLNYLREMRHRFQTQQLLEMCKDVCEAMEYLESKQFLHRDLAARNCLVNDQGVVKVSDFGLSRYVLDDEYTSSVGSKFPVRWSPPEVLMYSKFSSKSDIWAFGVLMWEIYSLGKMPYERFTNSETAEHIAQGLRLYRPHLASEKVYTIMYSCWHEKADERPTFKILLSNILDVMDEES

As for `Cn1cc(Nc2nc(N)nc(-c3cccc(-n4ccc5cc(C6CC6)cc(F)c5c4=O)c3CO)n2)cc1C#N` [Example 2, 4-({4-Amino-6-[3-(6-cyclopropyl-8-fluoro-1-oxoisoquinolin-2(1H)-yl)-2-(hydroxymethyl)phenyl]-1,3,5-triazin-2-yl}amino)-1-methyl-1H-pyrrole-2-carbonitrile], at BTK, the inhibition at 0.3 µM is not below 70%.

For `Cn1cc(Nc2nc(N)nc(-c3cccc(-n4ccc5cc(C6CC6)cc(F)c5c4=O)c3CO)n2)cn1` [Example 1, 2-(3-{4-Amino-6-[(1-methyl-1H-pyrazol-4-yl)amino]-1,3,5-triazin-2-yl}-2-(hydroxymethyl)phenyl)-6-cyclopropyl-8-fluoroisoquinolin-1(2H)-one], the “Toxic signs such as weight loss” value in data set [1] (Day 18 to Day 36) and in data set [4] (Day 0 to Day 20) was “able to circumvent any toxic signs such as weight loss” throughout. In addition, the “Inhibition of onset of arthritis (arthritis score)” value in data set [1] (Day 18 to Day 36 (FIG. 3)) and in data set [4] (Day 0 to Day 20 (FIG. 4)) was “inhibited the onset of the arthritis in a dose dependent manner” throughout. The “Inhibition of leakage of the dye into the auricles (PCA reaction)” value in data set [2] is “inhibited the leakage of the dye in blood into the auricles significantly”. Moreover, the “Inhibition of change of intracellular calcium ion induced by BCR-stimulation” value in data set [3] is on record as “in a concentration-dependent manner from a low concentration; also recorded: inhibits the BCR signal in the Ramos cells in a concentration dependent manner”. Further, at BTK, the inhibition at 0.3 µM is not below 70%.
